The record followed here is US20200172483A1, “HETEROCYCLIC SMALL MOLECULE MODULATORS OF HUMAN STING” (Curadev Pharma Limited, priority 2017, published 2020).

Bounds are passed on as bounds.

T1 sequence (Q86WV6 whole entry H232R): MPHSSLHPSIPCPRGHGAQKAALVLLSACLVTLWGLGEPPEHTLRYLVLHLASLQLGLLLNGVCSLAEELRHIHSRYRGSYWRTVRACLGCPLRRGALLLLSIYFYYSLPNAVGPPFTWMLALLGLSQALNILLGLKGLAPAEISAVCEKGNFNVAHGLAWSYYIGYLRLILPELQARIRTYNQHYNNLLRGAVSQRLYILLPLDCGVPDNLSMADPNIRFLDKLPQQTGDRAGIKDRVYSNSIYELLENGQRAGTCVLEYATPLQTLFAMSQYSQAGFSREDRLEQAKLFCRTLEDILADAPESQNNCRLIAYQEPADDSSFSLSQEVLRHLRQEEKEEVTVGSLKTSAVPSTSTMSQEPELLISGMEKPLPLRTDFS

This experiment addresses T1, WT/R232 STING protein (Homo sapiens, UniProt Q86WV6, H232R).
T1 construct: host or cells: HEK293T
Briefly: Luciferase reporter assay in HEK293T-hSTING-Luciferase cells (R232). In kind it is cell-based. The note with it: 20 hr stimulation, EC50 range. The procedure, abridged:
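Clonal HEK293T cells stably expressing human STING R232 plus an ISRE/ISG54-driven secreted luciferase reporter, stimulated with compounds for 20 hr. Luciferase in supernatant read by luminescence; activity given as fold-induction over baseline.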
Consider `O=C(NCc1c(F)cc(F)cc1F)c1ccc2c(c1)N(Cc1cc(F)cc(F)c1)C(=O)C21CCCCC1` [Example 138], for which the EC50 (usually the concentration needed to bring the measured effect to its halfway point) was greater than 10 µM. With `O=C(NCc1ccco1)c1ccc2c(c1)N(Cc1c(F)cccc1Cl)C(=O)C21CC1` [Example 139, 1′-(2-chloro-6-fluorobenzyl)-N-(furan-2-ylmethyl)-2′-oxospiro[cyclopropane-1,3′-indoline]-6′-carboxamide], the EC50 was greater than 10 µM. As to `O=C(NCc1ccco1)c1ccc2c(c1)N(Cc1c(F)cccc1Cl)S(=O)(=O)C2` [Example 140, 1-(2-chloro-6-fluorobenzyl)-N-(furan-2-ylmethyl)-1,3-dihydrobenzo[c]isothiazole-6-carboxamide 2,2-dioxide], the EC50 is greater than 10 µM. The same measure for `O=C(NCc1c(F)cc(F)cc1F)c1ccc2c(c1)N(Cc1cc(F)cc(F)c1)C(=O)C2=O` [Example 141, 1-(3,5-Difluorobenzyl)-2,3-dioxo-N-(2,4,6-trifluorobenzyl)indoline-6-carboxamide]: greater than 10 µM. With `O=C(NCc1c(F)cc(F)cc1F)c1ccc2c(c1)N(Cc1c(F)cccc1Cl)C(=O)C2=O` [Example 142, 1-(2-Chloro-6-fluorobenzyl)-2,3-dioxo-N-(2,4,6-trifluorobenzyl)indoline-6-carboxamide], the EC50 is greater than 10 µM. Take `CC1(O)C(=O)N(Cc2c(F)cccc2Cl)c2cc(C(=O)NCc3c(F)cc(F)cc3F)ccc21` (stereo not shown) [Example 143, 1-(2-Chloro-6-fluorobenzyl)-3-hydroxy-3-methyl-2-oxo-N-(2,4,6-trifluorobenzyl)indoline-6-carboxamide]: the EC50 was greater than 10 µM. In the case of `CNC1(C)C(=O)N(Cc2cc(F)cc(F)c2)c2cc(C(=O)NCc3c(F)cc(F)cc3F)ccc21` (stereo not shown) [Example 145, 1-(3,5-Difluorobenzyl)-3-methyl-3-(methylamino)-2-oxo-N-(2,4,6-trifluorobenzyl)indoline-6-carboxamide] it was 1 to 10 µM; in that of `CC1(O)C(=O)N(Cc2ccccc2F)c2cc(C(=O)NCc3ccco3)ccc21` (stereo not shown) [Example 149, 1-(2-fluorobenzyl)-N-(furan-2-ylmethyl)-3-hydroxy-3-methyl-2-oxoindoline-6-carboxamide], greater than 10 µM; in that of `CC1(F)C(=O)N(Cc2cc(F)cc(F)c2)c2cc(C(=O)NCc3c(F)cc(F)cc3F)ccc21` (stereo not shown) [Example 150, 1-(3,5-difluorobenzyl)-3-fluoro-3-methyl-2-oxo-N-(2,4,6-trifluorobenzyl)indoline-6-carboxamide], 1 to 10 µM. As to `COC1(C)C(=O)N(Cc2c(F)cccc2Cl)c2cc(C(=O)NCc3c(F)cc(F)cc3F)ccc21` (stereo not shown) [Example 151], the EC50 fell in the range of 1 to 10 µM. The same measure for `CN(C)C1(C)C(=O)N(Cc2c(F)cccc2Cl)c2cc(C(=O)NCc3c(F)cc(F)cc3F)ccc21` (stereo not shown) [Example 152, 1-(2-chloro-6-fluorobenzyl)-3-(dimethylamino)-3-methyl-2-oxo-N-(2,4,6-trifluorobenzyl)indoline-6-carboxamide]: 1 to 10 µM.

Compound `CC1(N)C(=O)N(Cc2ccccc2F)c2cc(C(=O)NCc3c(F)cc(F)cc3F)ccc21` (stereo not shown) [Example 154, 3-amino-1-(2-fluorobenzyl)-3-methyl-2-oxo-N-(2,4,6-trifluorobenzyl)indoline-6-carboxamide] registered an EC50 greater than 10 µM. As to `O=C(NCc1c(F)cc(F)cc1F)c1ccc2c(c1)N(Cc1c(F)cccc1Cl)C(=O)C2(Cl)c1ccccc1` (stereo not shown) [Example 156, 3-chloro-1-(2-chloro-6-fluorobenzyl)-2-oxo-3-phenyl-N-(2,4,6-trifluorobenzyl)indoline-6-carboxamide], the EC50 is greater than 10 µM. The same measure for `CCC1(O)C(=O)N(Cc2c(F)cccc2Cl)c2cc(C(=O)NCc3c(F)cc(F)cc3F)ccc21` (stereo not shown) [Example 158, 1-(2-chloro-6-fluorobenzyl)-3-ethyl-3-hydroxy-2-oxo-N-(2,4,6-trifluorobenzyl)indoline-6-carboxamide]: greater than 10 µM; for `CC(C)C1(O)C(=O)N(Cc2c(F)cccc2Cl)c2cc(C(=O)NCc3c(F)cc(F)cc3F)ccc21` (stereo not shown) [Example 159, 1-(2-chloro-6-fluorobenzyl)-3-hydroxy-3-isopropyl-2-oxo-N-(2,4,6-trifluorobenzyl)indoline-6-carboxamide]: greater than 10 µM. The compound `O=C(NCc1c(F)cc(F)cc1F)c1ccc2c(c1)N(Cc1c(F)cccc1Cl)C(=O)C2(O)c1ccccc1` (stereo not shown) [Example 160, 1-(2-chloro-6-fluorobenzyl)-3-hydroxy-2-oxo-3-phenyl-N-(2,4,6-trifluorobenzyl)indoline-6-carboxamide] registered an EC50 greater than 10 µM. In turn, `CC1(O)C(=O)N(Cc2cc(F)cc(F)c2)c2cc(C(=O)NCc3c(F)cc(F)cc3F)ccc21` (stereo not shown) [Example 162] registered an EC50 greater than 10 µM. In the case of `CC1(CC(=O)O)C(=O)N(Cc2cc(F)cc(F)c2)c2cc(C(=O)NCc3c(F)cc(F)cc3F)ccc21` (stereo not shown) [Example 169, 2-(1-(3,5-difluorobenzyl)-3-methyl-2-oxo-6-((2,4,6-trifluorobenzyl)carbamoyl)indolin-3-yl)acetic acid] it was greater than 10 µM; in that of `CC1(C(N)=O)C(=O)N(Cc2cc(F)cc(F)c2)c2cc(C(=O)NCc3c(F)cc(F)cc3F)ccc21` (stereo not shown) [Example 170], greater than 10 µM; in that of `CC1(CCN2CCOCC2)C(=O)N(Cc2cc(F)cc(F)c2)c2cc(C(=O)NCc3c(F)cc(F)cc3F)ccc21` (stereo not shown) [Example 171, 1-(3,5-difluorobenzyl)-3-methyl-3-(2-morpholinoethyl)-2-oxo-N-(2,4,6-trifluorobenzyl)indoline-6-carboxamide], greater than 10 µM. In the case of `CC1(CN)C(=O)N(Cc2cc(F)cc(F)c2)c2cc(C(=O)NCc3c(F)cc(F)cc3F)ccc21` (stereo not shown) [Example 172, 3-(aminomethyl)-1-(3,5-difluorobenzyl)-3-methyl-2-oxo-N-(2,4,6-trifluorobenzyl)indoline-6-carboxamide] it was greater than 10 µM; in that of `CC1(CCN)C(=O)N(Cc2cc(F)cc(F)c2)c2cc(C(=O)NCc3c(F)cc(F)cc3F)ccc21` (stereo not shown) [Example 173, 3-(2-aminoethyl)-1-(3,5-difluorobenzyl)-3-methyl-2-oxo-N-(2,4,6-trifluorobenzyl)indoline-6-carboxamide], greater than 10 µM.

The compound `CC1(CCO)C(=O)N(Cc2cc(F)cc(F)c2)c2cc(C(=O)NCc3ccc(F)cc3F)ccc21` (stereo not shown) [Example 174, N-(2,4-difluorobenzyl)-1-(3,5-difluorobenzyl)-3-(2-hydroxyethyl)-3-methyl-2-oxoindoline-6-carboxamide] had an EC50 greater than 10 µM.

For `CC1(CO)C(=O)N(Cc2cc(F)cc(F)c2)c2cc(C(=O)NCc3ccc(F)cc3F)ccc21` (stereo not shown) [Example 176, N-(2,4-difluorobenzyl)-1-(3,5-difluorobenzyl)-3-(hydroxymethyl)-3-methyl-2-oxoindoline-6-carboxamide], the EC50 was greater than 10 µM. Regarding `CC1(CCCO)C(=O)N(Cc2c(F)cccc2Cl)c2cc(C(=O)NCc3c(F)cc(F)cc3F)ccc21` (stereo not shown) [Example 177, 1-(2-chloro-6-fluorobenzyl)-3-(3-hydroxypropyl)-3-methyl-2-oxo-N-(2,4,6-trifluorobenzyl)indoline-6-carboxamide], the EC50 was greater than 10 µM. The same measure for `CC1(CC#N)C(=O)N(Cc2cc(F)cc(F)c2)c2cc(C(=O)NCc3c(F)cc(F)cc3F)ccc21` (stereo not shown) [Example 178, 3-(cyanomethyl)-1-(3,5-difluorobenzyl)-3-methyl-2-oxo-N-(2,4,6-trifluorobenzyl)indoline-6-carboxamide]: 1 to 10 µM; for `CC1(C)C(=O)N(Cc2cc(F)cc(F)c2)c2cc(C(=O)NCc3c(F)cc(F)cc3F)cnc21` [Example 179, 1-(3,5-Difluorobenzyl)-3,3-dimethyl-2-oxo-N-(2,4,6-trifluorobenzyl)-2,3-dihydro-1H-pyrrolo[3,2-b]pyridine-6-carboxamide]: 1 to 10 µM; for `CC1(C)C(=O)N(Cc2cc(F)cc(F)c2)c2nc(C(=O)NCc3c(F)cc(F)cc3F)ccc21` [Example 180, 1-(3,5-difluorobenzyl)-3,3-dimethyl-2-oxo-N-(2,4,6-trifluorobenzyl)-2,3-dihydro-1H-pyrrolo[2,3-b]pyridine-6-carboxamide]: 1 to 10 µM. The same measure for `CC1(C)C(=O)N(Cc2ccc(F)cc2)c2nc(C(=O)NCc3c(F)cc(F)cc3F)ccc21` [Example 181, 1-(4-fluorobenzyl)-3,3-dimethyl-2-oxo-N-(2,4,6-trifluorobenzyl)-2,3-dihydro-1H-pyrrolo[2,3-b]pyridine-6-carboxamide]: greater than 10 µM; for `Cc1cc(CN2C(=O)C(C)(C)c3ccc(C(=O)NCc4cc5ccccc5o4)nc32)ccn1` [Example 183, N-(benzofuran-2-ylmethyl)-3,3-dimethyl-1-((2-methylpyridin-4-yl)methyl)-2-oxo-2,3-dihydro-1H-pyrrolo[2,3-b]pyridine-6-carboxamide]: 1 to 10 µM.

With `CC1(C)C(=O)N(Cc2ccncc2)c2nc(C(=O)NCc3c(F)cc(F)cc3F)ccc21` [Example 184, 3,3-dimethyl-2-oxo-1-(pyridin-4-ylmethyl)-N-(2,4,6-trifluorobenzyl)-2,3-dihydro-1H-pyrrolo[2,3-b]pyridine-6-carboxamide], the EC50 was in the range of 1 to 10 µM. For the compound `Cc1cc(CN2C(=O)C(C)(C)c3ccc(C(=O)NCc4c(F)cc(F)cc4F)nc32)ccn1` [Example 185, 3,3-dimethyl-1-((2-methylpyridin-4-yl)methyl)-2-oxo-N-(2,4,6-trifluorobenzyl)-2,3-dihydro-1H-pyrrolo[2,3-b]pyridine-6-carboxamide], the EC50 lay in the range of 1 to 10 µM.

In the case of `CC1(C)C(=O)N(Cc2cc(F)cc(F)c2)c2cc(C(=O)NCc3c(F)cc(F)cc3F)ncc21` [Example 186, 1-(3,5-difluorobenzyl)-3,3-dimethyl-2-oxo-N-(2,4,6-trifluorobenzyl)-2,3-dihydro-1H-pyrrolo[3,2-c]pyridine-6-carboxamide], the concentration giving a half-maximal response (EC50) is greater than 10 µM. Compound `CC1(C)C(=O)N(Cc2cc(F)cc(F)c2)c2nc(C(=O)NCc3cc4ccncc4o3)ccc21` [Example 187, 1-(3,5-difluorobenzyl)-N-(furo[2,3-c]pyridin-2-ylmethyl)-3,3-dimethyl-2-oxo-2,3-dihydro-1H-pyrrolo[2,3-b]pyridine-6-carboxamide] yielded an EC50 greater than 10 µM.
